We go through 19 compounds from ChEMBL document CHEMBL4828735, “Discovery of N-((3S,4S)-4-(3,4-Difluorophenyl)piperidin-3-yl)-2-fluoro-4-(1-methyl-1H-pyrazol-5-yl)benzamide (Hu7691), a Potent and Selective Akt Inhibitor That Enables Decrease of Cutaneous Toxicity” (J Med Chem, 2021).

The test system of data set [1] is HaCaT. In words: Antiproliferative activity against human HaCaT cells assessed as inhibition of cell growth incubated for 72 hrs by SRB assay. It counts as cell-based. (The SRB assay estimates cell density from bound dye.)
Data set [2] relates to KHOS/NP. In words: Antiproliferative activity against human KHOS cells assessed as inhibition of cell growth incubated for 72 hrs by SRB assay. The format is functional, cell-based.
Data set [3] concerns the target hERG (KCNH2) (Homo sapiens, UniProt Q12809). In words: Inhibition of human ERG expressed in HEK293 cells at 3 uM by whole cell patch clamp method relative to control. The format is cell-based. The settings on record: HEK293 cells expressing hERG. (In general: The patch-clamp technique gives a direct electrical read-out from membranes.)
In data set [4] the target is RAC-alpha serine/threonine-protein kinase (Homo sapiens, UniProt P31749). In words: Inhibition of N-terminal GST-tagged human AKT1 (104 to 408 residues) expressed in baculovirus infected Sf21 cells incubated for 1 hr in presence of ATP by mobility shift assay.
Data set [5] deals with 786-0. The data set is described as follows: Antiproliferative activity against human 786-0 cells assessed as inhibition of cell growth incubated for 72 hrs by SRB assay. To be noted: 786-0, 72 h. The format is functional, cell-based.
In data set [6] the test system is HGC-27. In words: Antiproliferative activity against human HGC-27 cells assessed as inhibition of cell growth incubated for 72 hrs by SRB assay. To be noted: HGC-27, 72 h. It counts as functional, cell-based.

Sequence of RAC-alpha serine/threonine-protein kinase (P31749 whole entry, the tested form may be a part): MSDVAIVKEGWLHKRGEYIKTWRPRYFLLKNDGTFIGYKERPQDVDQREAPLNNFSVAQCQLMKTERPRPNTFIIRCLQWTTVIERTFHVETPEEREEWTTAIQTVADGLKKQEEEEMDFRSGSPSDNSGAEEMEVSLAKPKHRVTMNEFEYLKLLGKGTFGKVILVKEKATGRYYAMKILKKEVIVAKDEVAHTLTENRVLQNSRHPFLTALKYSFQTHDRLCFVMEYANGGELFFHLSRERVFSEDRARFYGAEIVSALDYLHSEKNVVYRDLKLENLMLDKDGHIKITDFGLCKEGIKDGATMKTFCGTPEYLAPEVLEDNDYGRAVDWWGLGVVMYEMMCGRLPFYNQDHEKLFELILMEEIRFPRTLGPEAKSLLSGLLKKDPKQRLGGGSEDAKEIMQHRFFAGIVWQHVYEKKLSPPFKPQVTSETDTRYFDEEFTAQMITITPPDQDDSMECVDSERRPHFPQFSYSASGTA
Sequence of hERG (KCNH2) (Q12809 whole entry, the tested form may be a part): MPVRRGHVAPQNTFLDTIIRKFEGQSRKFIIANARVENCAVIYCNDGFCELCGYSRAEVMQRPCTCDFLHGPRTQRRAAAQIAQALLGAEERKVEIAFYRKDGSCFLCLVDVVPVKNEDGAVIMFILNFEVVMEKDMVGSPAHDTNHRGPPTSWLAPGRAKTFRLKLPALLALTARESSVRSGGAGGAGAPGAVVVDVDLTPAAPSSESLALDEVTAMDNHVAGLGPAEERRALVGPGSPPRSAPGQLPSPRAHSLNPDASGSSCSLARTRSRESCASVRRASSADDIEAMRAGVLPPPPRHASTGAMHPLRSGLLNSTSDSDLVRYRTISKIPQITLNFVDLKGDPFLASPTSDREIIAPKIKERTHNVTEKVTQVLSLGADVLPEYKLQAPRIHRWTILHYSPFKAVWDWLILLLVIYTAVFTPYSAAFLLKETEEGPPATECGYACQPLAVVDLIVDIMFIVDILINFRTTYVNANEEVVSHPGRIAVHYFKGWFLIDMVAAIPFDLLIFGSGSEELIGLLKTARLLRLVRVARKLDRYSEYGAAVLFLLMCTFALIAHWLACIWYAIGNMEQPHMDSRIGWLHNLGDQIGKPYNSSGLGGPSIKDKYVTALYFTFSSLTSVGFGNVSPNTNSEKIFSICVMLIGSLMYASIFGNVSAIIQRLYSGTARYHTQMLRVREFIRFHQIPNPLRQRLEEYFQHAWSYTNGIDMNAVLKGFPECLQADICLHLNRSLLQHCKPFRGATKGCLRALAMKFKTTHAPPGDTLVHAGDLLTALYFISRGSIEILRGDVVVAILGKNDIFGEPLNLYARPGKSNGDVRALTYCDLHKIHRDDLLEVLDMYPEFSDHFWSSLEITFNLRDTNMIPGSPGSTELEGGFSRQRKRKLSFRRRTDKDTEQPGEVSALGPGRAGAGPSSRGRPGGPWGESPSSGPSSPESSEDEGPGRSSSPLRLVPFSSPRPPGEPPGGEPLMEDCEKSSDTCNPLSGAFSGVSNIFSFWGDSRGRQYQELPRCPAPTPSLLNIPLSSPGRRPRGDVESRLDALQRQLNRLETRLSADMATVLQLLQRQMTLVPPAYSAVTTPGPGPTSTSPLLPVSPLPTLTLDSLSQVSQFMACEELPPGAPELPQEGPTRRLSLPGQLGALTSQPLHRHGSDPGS

By IC50 is commonly meant the point on the concentration scale where inhibition reaches its midpoint. With `Cn1nccc1-c1ccc(C(=O)N[C@@H]2CNCC[C@H]2c2ccc(F)c(F)c2)cc1`, the half-maximal inhibitory concentration (IC50) in data set [1] worked out at 5.44 µM.

The inhibition is how much of the control response was suppressed. High values mean a response far below the control, low ones a response near the control. As for `Cn1nccc1-c1ccc(C(=O)N[C@@H]2CNCC[C@H]2c2cc(F)cc(F)c2)c(F)c1`, the IC50 in data set [2] is 17.1 µM; in data set [4] it was 0.0046 µM; in data set [5] it was 2.22 µM; in data set [6] it was 0.51 µM. The compound also gave an inhibition at 3 µM in data set [3] of 6.4%.

On to `Cn1nccc1-c1ccc(C(=O)N[C@@H]2CNCC[C@H]2c2ccc(F)c(F)c2)cc1F`, for which the 50% inhibitory concentration (IC50) is 7.43 µM in data set [2], 0.0027 µM in data set [4], 0.95 µM in data set [5] and 0.18 µM in data set [6]. 3 µM produced 10.7% inhibition in data set [3].

As for `Cn1ncc(Br)c1-c1cc(F)c(C(=O)N[C@@H]2CNCC[C@H]2c2ccc(F)c(F)c2)c(Cl)c1`, the IC50 in data set [2] worked out at 3.61 µM; in data set [4], 0.137 µM; in data set [5] it was 3.21 µM; in data set [6] it was 3.28 µM.

Turning to `Cn1nccc1-c1cc(F)c(C(=O)N[C@@H]2CNCC[C@H]2c2ccc(F)c(F)c2)c(F)c1`, the IC50 in data set [2] was 15.4 µM; in data set [4], 0.0263 µM; in data set [5] it was 7.99 µM; in data set [6], 4.59 µM.

For `Cn1ncc(Cl)c1-c1cc(F)c(C(=O)N[C@@H]2CNCC[C@H]2c2ccc(F)c(F)c2)c(F)c1`, the IC50 worked out at 4.46 µM in data set [2], 0.0971 µM in data set [4], 4.28 µM in data set [5] and 4.86 µM in data set [6].

On to `Cn1nccc1-c1cc(F)c(C(=O)N[C@@H]2CNCC[C@H]2c2ccc(F)cc2)cc1F`, for which the IC50 in data set [2] is 17.6 µM; in data set [4], 0.0353 µM; in data set [5], 7.81 µM; in data set [6], 3.36 µM.

Regarding `Cn1ncc(Br)c1-c1cc(F)c(C(=O)N[C@@H]2CNCC[C@H]2c2ccc(F)c(F)c2)c(F)c1`, the half-maximal inhibitory concentration (IC50) is 5.01 µM in data set [2], 0.0957 µM in data set [4], 3.56 µM in data set [5] and 2.9 µM in data set [6].

As for `Cn1ncc(Br)c1-c1cc(F)c(C(=O)N[C@@H]2CNCC[C@H]2c2ccc(F)c(F)c2)cc1F`, the concentration for half-maximal inhibition (IC50) in data set [2] was found to be 3.06 µM; in data set [4] it was 0.0662 µM; in data set [5], 1.9 µM; in data set [6], 1.79 µM.

Regarding `Cn1ncc(Cl)c1-c1cc(F)c(C(=O)N[C@@H]2CNCC[C@H]2c2ccc(F)c(F)c2)c(Cl)c1`, the IC50 turned out to be 3.67 µM in data set [2], 0.142 µM in data set [4], 3.17 µM in data set [5] and 3.06 µM in data set [6].

As to `Cn1nccc1-c1ccc(C(=O)N[C@@H]2CNCC[C@H]2c2cc(F)cc(F)c2)c(Cl)c1`, the IC50 in data set [2] was determined as 11.8 µM; in data set [4], 0.015 µM; in data set [5] it was 3.79 µM; in data set [6] it was 1.24 µM.

On to `Cn1nccc1-c1ccc(C(=O)N[C@@H]2CNCC[C@H]2c2cc(F)cc(F)c2)cc1F`, for which the IC50 in data set [2] amounted to 7.27 µM; in data set [4], 0.0018 µM; in data set [5], 1.01 µM; in data set [6], 0.15 µM. The inhibition at 3 µM in data set [3] was determined as 26.4%.

As for `Cn1nccc1-c1cc(F)c(C(=O)N[C@@H]2CNCC[C@H]2c2ccc(F)c(F)c2)c(Cl)c1`, the IC50 was 3.89 µM in data set [2], 0.047 µM in data set [4], 2.2 µM in data set [5] and 1.7 µM in data set [6].

With `Cn1nccc1-c1cc(F)c(C(=O)N[C@@H]2CNCC[C@H]2c2ccc(F)cc2)c(F)c1`, the IC50 in data set [2] was found to be 29.1 µM; in data set [4] it was 0.107 µM; in data set [5] it was 25.5 µM; in data set [6], 7.27 µM.

As for `Cn1nccc1-c1ccc(C(=O)N[C@@H]2CNCC[C@H]2c2ccc(F)c(F)c2)c(Cl)c1`, the half-inhibitory concentration (IC50) came to 11.7 µM in data set [2], 0.024 µM in data set [4], 4.07 µM in data set [5] and 1.4 µM in data set [6].

Turning to `Cn1nccc1-c1cc(F)c(C(=O)N[C@@H]2CNCC[C@H]2c2ccc(F)c(F)c2)cc1F`, the IC50 in data set [2] was 18.4 µM; in data set [4], 0.0092 µM; in data set [5], 5.05 µM; in data set [6] it was 1.45 µM. The compound also showed an inhibition at 3 µM in data set [3] of 27.2%.

On to `O=C(N[C@@H]1CNCC[C@H]1c1ccc(F)c(F)c1)c1ccc(-c2ccn[nH]2)cc1F`, for which the IC50 in data set [2] turned out to be 10.7 µM; in data set [4], 0.083 µM; in data set [5], 7.15 µM; in data set [6], 4.34 µM.

In the case of `CCn1nccc1-c1ccc(C(=O)N[C@@H]2CNCC[C@H]2c2ccc(F)c(F)c2)c(F)c1`, the half-inhibitory concentration (IC50) in data set [2] came to 5.46 µM; in data set [4], 0.176 µM; in data set [5] it was 5.2 µM; in data set [6], 3.57 µM.

On to `Cn1ncc(Cl)c1-c1cc(F)c(C(=O)N[C@@H]2CNCC[C@H]2c2ccc(F)c(F)c2)cc1F`, for which the IC50 in data set [4] was 0.0489 µM.
